Measured values as given in PMC10754118, “Lipophilic Nucleoside Triphosphate Prodrugs of Anti‐HIV Active Nucleoside Analogs as Potential Antiviral Compounds” (Advanced Science, 2023).
Read-outs that look alike come from different tables or passages of the source.

Key:
[1] = system: HIV‐2 [ROD)]; assay: Anti-HIV activity, HIV-2 in thymidine kinase-deficient CEM/TK^− cells; type: cell-based
Method: (§1) Part 9. Anti-HIV activity assay.
(§2) The produce was used as previously reported. 5 Inhibition of HIV-1(IIIB)- and HIV-2(ROD)-induced cytopathogenicity in wild-type CEM/0 and thymidine kinase-deficient CEM/TK– cell cultures was measured in […]
(§3) containing appropriate dilutions of the test compounds. After 4−5 days of incubation at 37 °C in a CO2-controlled humidified atmosphere, CEM giant (syncytium) cell formation was examined microscopically. The […]
(§4) giant cell formation by 50%.
(§5) Part 10. Primer-extension assays. […]

[2] = in vitro; conditions: human
Method: All TriPPPro‐compounds 10 and 20, as well as their parent nucleosides and the corresponding NTPs, were evaluated for their antiviral activity (expressed as EC50 values) against HIV‐1 (wild‐type CEM/0 cells) and HIV‐2 (wild‐type CEM/0 cells and thymidine kinase‐deficient (CEM/TK^−) cells) with concomitant determination of cytotoxicity in the same cell line (Table 3 ).

[3] = system: HIV‐1 [HE]; assay: Anti-HIV activity, HIV-1 in wild-type CEM/0 cells; type: cell-based; conditions: Human immunodeficiency virus 1, CCRF-CEM, read-out: Antiviral activity CEM/0 HIV‐1 [HE] EC50
[4] = system: HIV‐2 [ROD]; assay: Anti-HIV activity, HIV-2 in wild-type CEM/0 cells; type: cell-based; conditions: Human immunodeficiency virus 2, CCRF-CEM, read-out: Antiviral activity CEM/0 HIV‐2 [ROD] EC50
Method: as §1, §2, §3, §4, §5

[5] = Chemical hydrolysis in phosphate buffer saline (PBS, pH 7.3); type: physicochemical; conditions: PBS pH 7.3, 37 °C, read-out: PBS pH 7.3 t 1/2 (converted)
Method: Part 4. Chemical Hydrolysis of TriPPPro-compounds 10 and 20.
Second prepare 1.9 mM hydrolysis […]
Then, aliquots of 50 µL human

[6] = in vitro; conditions: human, plasma
Method: First prepare 50 mM solutions of TriPPPro-compounds 10 and 20 in DMSO. […]
First prepare 3.0 mM hydrolysis solutions of Tri PPPro-compounds 10 and 20 in DMSO and H2O: 21 µL stock solution (50 mM in DMSO) and 154 µL DMSO, and 175 µL Milli-Q water. Three-twelve different samples (20 […]
The calculation of t1/2 was obtained using Origin again.
Part 7. Hydrolysis of TriPPPro-compounds 10 and 20 in human plasma.
µL 3.0 mM hydrolysis solutions) were prepared in 2 mL Eppendorf® vials. Then, aliquots of 50 µL human Plasma (Heparin or Citrate) were added to these samples and the reaction was started. The samples were […]
incubated at 37 °C in a thermomixer for different time periods. The reaction was stopped by addition of 150 µL MeOH and kept on ice for 5 min. After centrifugation at 14,000 rpm for 22 min, the supernatants were filtered (Chromafil RC-20/15 MS, 0.2 μm) and stored in liquid nitrogen. When testing, aliquots of 25 0r 30 µL (injection volume) were analyzed by analytical HPLC (HPLC Method). The calculation of t1/2 was obtained using Origin […]
Part 8. Preparation of cell extracts and human plasma. […]

[7] = Human immunodeficiency virus 2, CEM-TK(-), thymidine kinase-deficient CEM/TK^− cells, mean ±SD n = 2–3; read-out: Antiviral activity CEM/TK^− HIV‐2 [ROD)] EC50
[8] = CEM/0 cells (wild-type CD4+ T-cells)
[9] = wild-type CEM/0 cells, mean ±SD n = 2–3
[10] = Human immunodeficiency virus 2, CEM-TK(-), read-out: Antiviral activity CEM/TK^− HIV‐2 [ROD)] EC50

| Structure (SMILES) | EC50 [1, 7] | EC50 [3, 9] | EC50 [4, 9] | half-life at 1.9 mM [5] | half-life at 0.86 mM ([6]; Plasma (Citrate) t 1/2) | half-life at 0.86 mM ([6]; Plasma (Heparin) t 1/2) | half-life at 0.86 mM ([6]; t 1/2 in human plasma (over heparin and citrate plasma)) | EC50 ([1]; thymidine kinase-deficient CEM/TK^− cells, mean ±SD n = 2–3; read-out: Antiviral activity CEM/TK^− HIV‐2 [ROD)] EC50) | CC50 [2, 8] | EC50 [1, 10] | EC50 [3] | EC50 [4] | CC50 [2] |
| --- | --- | --- | --- | --- | --- | --- | --- | --- | --- | --- | --- | --- | --- |
| Nc1nc(=O)n([C@@H]2CS[C@H](CO)O2)cc1F [1c (FTC), FTC, reference compound] | 10 ± 10 nM | 8.6 ± 5.7 nM | 20 ± 1 nM | – | – | – | – | – | > 100000 nM | – | – | – | – |
| Cc1cn([C@H]2C[C@H](N=[N+]=[N-])[C@@H](COP(=O)(O)OP(=O)(O)O)O2)c(=O)[nH]c1=O [AZTDP, reference compound] | – | – | – | – | 6.4 h | 2.8 h | 2.8 to 6.4 h | – | – | – | – | – | – |
| O=c1ccn([C@H]2C[C@H](F)[C@@H](CO)O2)c(=O)[nH]1 [1e (FddU), FddU, reference compound] | > 100000 nM | 210 ± 20 nM | 150 ± 17 nM | – | – | – | – | – | > 100000 nM | – | – | – | – |
| CCCCCCCCCCCCCCCCCCP(=O)(OCCCC)OP(=O)(O)OP(=O)(O)OC[C@H]1O[C@@H](n2ccc(=O)[nH]c2=O)C[C@@H]1F (stereo partly drawn) [10fx] | – | – | – | > 83.3 days | – | – | – | – | 67300 ± 33800 nM | 150 ± 60 nM | 41 ± 44 nM | 29 ± 7.1 nM | – |
| Cc1cn([C@H]2C[C@H](N=[N+]=[N-])[C@@H](CO)O2)c(=O)[nH]c1=O [1b (AZT), AZT, reference compound] | > 150000 nM | 14 ± 8.5 nM | 3.4 ± 2.1 nM | – | – | – | – | > 100000 nM | > 100000 nM | – | – | – | – |
| O=c1[nH]c(=O)n([C@H]2C[C@H](O)[C@@H](CO)O2)cc1/C=C/Br [1g (BVDU), BVDU, reference compound] | > 250000 nM | > 250000 nM | > 250000 nM | – | – | – | – | – | – | – | – | – | 207000 ± 60000 nM |
| CCCCCCCCCCCCCCCCCCP(=O)(OCCCC)OP(=O)(O)OP(=O)(O)OC[C@H]1O[C@@H](n2cc(Cl)c(=O)[nH]c2=O)C[C@@H]1F (stereo partly drawn) [10dx] | – | – | – | > 83.3 days | – | – | – | – | 54400 ± 15900 nM | 3210 ± 1120 nM | 2590 ± 710 nM | 2230 ± 1200 nM | – |
| CCCCCCCCCCCCCCCCCCP(=O)(OCCCC)OP(=O)(O)OP(=O)(O)OC[C@@H]1O[C@H](n2cc(F)c(N)nc2=O)CS1 (stereo partly drawn) [10cx] | – | – | – | > 83.3 days | – | – | – | – | 46000 nM | 11 nM | 49 ± 45 nM | 94 ± 23 nM | – |

Continued, in another order:

| EC50 [1, 7] | EC50 [3, 9] | EC50 [4, 9] | half-life at 1.9 mM [5] | half-life at 0.86 mM ([6]; Plasma (Citrate) t 1/2) | half-life at 0.86 mM ([6]; Plasma (Heparin) t 1/2) | half-life at 0.86 mM ([6]; t 1/2 in human plasma (over heparin and citrate plasma)) | EC50 ([1]; thymidine kinase-deficient CEM/TK^− cells, mean ±SD n = 2–3; read-out: Antiviral activity CEM/TK^− HIV‐2 [ROD)] EC50) | Structure (SMILES) | CC50 [2, 8] | EC50 [1, 10] | EC50 [3] | EC50 [4] | CC50 [2] |
| --- | --- | --- | --- | --- | --- | --- | --- | --- | --- | --- | --- | --- | --- |
| 1830 ± 1650 nM | 460 ± 360 nM | 460 ± 400 nM | 2.12 days | – | – | – | – | CCCCCCCCCCCCCCCCCCP(=O)(OCc1ccc(OC(=O)CCCC)cc1)OP(=O)(O)OP(=O)(O)OC[C@H]1O[C@@H](n2cc(C)c(=O)[nH]c2=O)C[C@@H]1F (stereo partly drawn) [10ez] | 45300 ± 16700 nM | – | – | – | – |
| 26 ± 35 nM | 100 ± 30 nM | 180 ± 110 nM | 7.54 days | – | – | – | – | CCCCCCCCCCCCCCCCCCOP(=O)(OCC(CC)CCCC)OP(=O)(O)OP(=O)(O)OC[C@@H]1C=C[C@H](n2cnc3c(NC4CC4)nc(N)nc32)C1 (stereo partly drawn) [10hw] | > 100000 nM | – | – | – | – |
| 20 ± 21 nM | 160 ± 60 nM | 140 ± 40 nM | > 62.5 days | – | – | – | – | CCCCCCCCCCCCCCCCCCP(=O)(OCc1ccc(OC(=O)CCCC)cc1)OP(=O)(O)OP(=O)(O)OC[C@@H]1O[C@H](n2cc(F)c(N)nc2=O)CS1 (stereo partly drawn) [10cz] | 66000 ± 35600 nM | – | – | – | – |
| 110 ± 140 nM | 370 ± 470 nM | 140 ± 62 nM | > 83.3 days | – | – | – | – | CCCCCCCCCCCCCCCCCCOP(=O)(OCC(CC)CCCC)OP(=O)(O)OP(=O)(O)OC[C@H]1O[C@@H](n2ccc(=O)[nH]c2=O)C[C@@H]1F (stereo partly drawn) [10fw] | 63500 ± 27200 nM | – | – | – | – |
| 11200 ± 4990 nM | 7580 ± 2200 nM | 8010 ± 2810 nM | > 62.5 days | – | – | – | – | CCCCCCCCCCCCCCCCCCP(=O)(OCc1ccc(OC(=O)CCCC)cc1)OP(=O)(O)OP(=O)(O)OC[C@H]1O[C@@H](n2cc(/C=C/Br)c(=O)[nH]c2=O)C[C@@H]1O (stereo partly drawn) [10gz] | 43900 ± 8300 nM | – | – | – | – |
